Patent US20230003721A1, “MITOTHERAPEUTICS FOR THE TREATMENT OF BRAIN DISORDERS” (The University of Florida Research Foundation, Inc., priority 2019, published 2023)
Counter-ions that a name gives are not always drawn. Like-named read-outs stand apart in the source and are kept apart here.

Assays:
[1] = tested on: primary neurons; test: CellTiter-Glo luminescence-based ATP assay; assay type: cell-based, mouse; conditions: for ATP: ATP orthogonal screen, 24 h; for EC50 / Emax: Mus musculus, Primary neuron, dose response; for EC50: 15 concentrations from 6 nM to 100 uM; for Emax: maximal percent increase relative to in-plate DMSO controls, read-out: ATP (Effect-size)
Method in brief: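 Primary neurons treated from DIV13 for 24 h with compound or DMSO. After part of the medium was removed, CellTiter-Glo reagent was added; plates were shaken 10 min at 200 rpm, kept 2 min in the dark at room temperature, and luminescence read as total ATP.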

[2] = tested on: primary neurons; test: TMRM fluorescence assay of inner mitochondrial membrane potential (ΔΨm); conditions: for Emax / EC50: Mus musculus, Primary neuron; for Emax: read-out: TMRM (Effect-size); for EC50: read-out: TMRM-EC50; for TMRM Primary: primary screen, 12.5 μM; for TMRM Primary / TMRM Rescreen: 24 h
[3] = tested on: primary forebrain neurons; test: cells; conditions: 24 h; for EC50: Mus musculus, Neuron; for Dendritic Mt CA / Neurite Area: rescreen, 12.5 μM, vs DMSO wells
[4] = read-out: Elongation (Dend Mt length) EC50
[5] = read-out: Health (Ax Mt Circularity) EC50
[6] = read-out: Mt Content (Dend Mt CA) EC50
[7] = read-out: Sprouting (Neurite Area) EC50

| Structure (SMILES) | ATP [1] [Z-scores] | EC50 [1] [µM] | Emax [1] [%] | ATP production in neurons ([1]; after 24 hr of treatment) | Emax [2] [%] | EC50 [2] [µM] | TMRM Primary [2] [Z-scores] | TMRM Rescreen [2] [Z-scores] | EC50 [3, 4] [µM] | EC50 [3, 5] [µM] | EC50 [3, 6] [µM] | EC50 [3, 7] [µM] | Dendritic Mt CA [3] [robust Z-scores] | Neurite Area [3] [robust Z-scores] |
| --- | --- | --- | --- | --- | --- | --- | --- | --- | --- | --- | --- | --- | --- | --- |
| CCCCOc1ccc(C(=O)CCN2CCCCC2)cc1 [DYCLONINE HYDROCHLORIDE] | 7.04 | 0.14 | 20.7 | increased | 22 | 0.75 | 3.64 | 6.30 | 1.5 | 0.2 | 0.2 | > 25 | 3.89 | 0.33 |
| O=c1c(-c2ccc(O)cc2)coc2cc(O)cc(O)c12 [GENISTEIN] | 5.96 | 3 | 20.6 |  | 19.5 | 1.3 | 3.38 | 4.21 |  |  |  |  | 2.93 | 0.34 |
| COC(=O)[C@@H]1[C@H]2C[C@H]3c4[nH]c5ccccc5c4CCN3C[C@@H]2CC[C@@H]1O [YOHIMBINE HYDROCHLORIDE] | 3.11 | 0.27 | 23.6 |  | 18.6 | 0.62 | 2.70 | 5.70 | 0.2 | 1.3 | 0.01 | 1.7 | 3.44 | 2.50 |
